Reference: patent US20260022142A1, “MACROCYCLIC IMMUNOMODULATORS” (Bristol-Myers Squibb Company, priority 2022, published 2026)
Bridge positions count the residues as written; N and C are the ends. Square brackets hold non-standard residues; d marks the D form. Peptide text beside a SMILES is read from it. * marks the point of attachment. Phe(3-CF3) = N[C@@H](Cc1cccc(C(F)(F)F)c1)C(=O)O; Ala(morpholin-4-yl) = N[C@@H](CN1CCOCC1)C(=O)O; Phe(4-COOH) = N[C@@H](Cc1ccc(C(=O)O)cc1)C(=O)O; Bip = N[C@@H](Cc1ccc(-c2ccccc2)cc1)C(=O)O; NH(CH2)14COOH = O=C(O)CCCCCCCCCCCCCCN*; NH(CH2)12COOH = O=C(O)CCCCCCCCCCCCN*; Val(3-OH) = CC(C)(O)[C@H](N)C(=O)O; Cha = N[C@@H](CC1CCCCC1)C(=O)O; PEG4 = NCCOCCOCCOCCOCCC(=O)O; Carboxymethyl = O=C(O)C*; Orn = NCCC[C@H](N)C(=O)O; Dab = NCC[C@H](N)C(=O)O; AEEA = NCCOCCOCC(=O)O

molecular target: T1, PD-1/PD-L1 interaction (PE-labeled human PD-L1-Ig binding to Jurkat cell line over-expressing human PD-1) (Homo sapiens, UniProt Q15116); assay: Jurkat-PD-1 Cell Binding High-Content Screening Assay (CBA); type: cell-based; conditions: Jurkat cell line over-expressing human PD-1; PE-labeled PD-L1-Ig 20 nM final; read-out: Jurkat hPD1-PDL1 IC50
T1 construct: expressed in transfected cells; host or cells: Jurkat
T1 sequence (Q15116 25-288): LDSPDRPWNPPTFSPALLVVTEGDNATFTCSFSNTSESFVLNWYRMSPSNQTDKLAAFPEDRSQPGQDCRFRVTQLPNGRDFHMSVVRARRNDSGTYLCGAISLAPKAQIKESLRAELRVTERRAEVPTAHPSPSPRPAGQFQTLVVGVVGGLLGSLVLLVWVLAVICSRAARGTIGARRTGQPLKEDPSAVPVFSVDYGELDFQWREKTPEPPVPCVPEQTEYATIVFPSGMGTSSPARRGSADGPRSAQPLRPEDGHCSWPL
Procedure, shortened: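 First, compound is added to PD-1-expressing Jurkat cells in serum-containing DMEM and left 2 h at 37° C. Next, PE-conjugated PD-L1-Ig is introduced at 20 nM final concentration for 1 hour. Finally, cells are fixed in 4% paraformaldehyde with Hoechst 33342, washed and imaged.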

SMILES	IC50 [nM]
CC(C)C[C@H]1NC(=O)[C@H](CCCN)NC(=O)[C@H](Cc2ccc(C(=O)O)cc2)NC(=O)[C@H](Cc2ccc(-c3ccccc3)cc2)NC(=O)[C@H](Cc2ccc(C(=O)O)cc2)NC(=O)[C@H](Cc2cccc(C(F)(F)F)c2)NC(=O)[C@H](CC(=O)O)NC(=O)[C@H](Cc2ccc(OCC(=O)O)cc2)NC(=O)[C@H](CN2CCOCC2)NC(=O)CSC[C@@H](C(=O)N[C@@H](CCN)C(=O)NCCOCCOCCOCCOCCC(=O)NCCCCCCCCCCCCCCC(=O)O)NC(=O)[C@H](CO)NC(=O)[C@H](C(C)(C)O)NC(=O)[C@H](CC2CCCCC2)NC(=O)[C@H](CCN)NC1=O [Compound 2917] ({CH2CO}-[Ala(morpholin-4-yl)]Y(Carboxymethyl)D[Phe(3-CF3)][Phe(4-COOH)][Bip][Phe(4-COOH)][Orn][dL][Dab][Cha][Val(3-OH)]SC[Dab][PEG4]-{NH(CH2)14COOH}; thioether N-14)	135
CC(C)C[C@H]1NC(=O)[C@H](CCCN)NC(=O)[C@H](Cc2ccc(C(=O)O)cc2)NC(=O)[C@H](Cc2ccc(-c3ccccc3)cc2)NC(=O)[C@H](Cc2ccc(C(=O)O)cc2)NC(=O)[C@H](Cc2cccc(C(F)(F)F)c2)NC(=O)[C@H](CC(=O)O)NC(=O)[C@H](Cc2ccc(OCC(=O)O)cc2)NC(=O)[C@H](CN2CCOCC2)NC(=O)CSC[C@@H](C(=O)N[C@@H](CCN)C(=O)NCCCCCCCCCCCCCCC(=O)O)NC(=O)[C@H](CO)NC(=O)[C@H](C(C)(C)O)NC(=O)[C@H](CC2CCCCC2)NC(=O)[C@H](CCN)NC1=O [Compound 2919] ({CH2CO}-[Ala(morpholin-4-yl)]Y(Carboxymethyl)D[Phe(3-CF3)][Phe(4-COOH)][Bip][Phe(4-COOH)][Orn][dL][Dab][Cha][Val(3-OH)]SC[Dab]-{NH(CH2)14COOH}; thioether N-14)	372
CC(C)C[C@H]1NC(=O)[C@H](CCCN)NC(=O)[C@H](Cc2ccc(C(=O)O)cc2)NC(=O)[C@H](Cc2ccc(-c3ccccc3)cc2)NC(=O)[C@H](Cc2ccc(C(=O)O)cc2)NC(=O)[C@H](Cc2cccc(C(F)(F)F)c2)NC(=O)[C@H](CC(=O)O)NC(=O)[C@H](Cc2ccc(OCC(=O)O)cc2)NC(=O)[C@H](CN2CCOCC2)NC(=O)CSC[C@@H](C(=O)N[C@@H](CCN)C(=O)NCCOCCOCC(=O)NCCOCCOCC(=O)NCCCCCCCCCCCCC(=O)O)NC(=O)[C@H](CC(=O)O)NC(=O)[C@H](C(C)(C)O)NC(=O)[C@H](CC2CCCCC2)NC(=O)[C@H](CCN)NC1=O [Compound 2920] ({CH2CO}-[Ala(morpholin-4-yl)]Y(Carboxymethyl)D[Phe(3-CF3)][Phe(4-COOH)][Bip][Phe(4-COOH)][Orn][dL][Dab][Cha][Val(3-OH)]DC[Dab][AEEA][AEEA]-{NH(CH2)12COOH}; thioether N-14)	25.7
CC(C)C[C@H]1NC(=O)[C@H](CCCN)NC(=O)[C@H](Cc2ccc(C(=O)O)cc2)NC(=O)[C@H](Cc2ccc(-c3ccccc3)cc2)NC(=O)[C@H](Cc2ccc(C(=O)O)cc2)NC(=O)[C@H](Cc2cccc(C(F)(F)F)c2)NC(=O)[C@H](CC(=O)O)NC(=O)[C@H](Cc2ccc(OCC(=O)O)cc2)NC(=O)[C@H](C)NC(=O)CSC[C@@H](C(=O)N[C@@H](CCN)C(=O)NCCCCCCCCCCCCCCC(=O)O)NC(=O)[C@H](Cc2c[nH]cn2)NC(=O)[C@H](C(C)(C)O)NC(=O)[C@H](CC2CCCCC2)NC(=O)[C@H](CCN)NC1=O [Compound 2922] ({CH2CO}-AY(Carboxymethyl)D[Phe(3-CF3)][Phe(4-COOH)][Bip][Phe(4-COOH)][Orn][dL][Dab][Cha][Val(3-OH)]HC[Dab]-{NH(CH2)14COOH}; thioether N-14)	423

Second part, the compound after the results:

IC50 [nM]	SMILES
25.3	CC(C)C[C@H]1NC(=O)[C@H](CCCN)NC(=O)[C@H](Cc2ccc(C(=O)O)cc2)NC(=O)[C@H](Cc2ccc(-c3ccccc3)cc2)NC(=O)[C@H](Cc2ccc(C(=O)O)cc2)NC(=O)[C@H](Cc2cccc(C(F)(F)F)c2)NC(=O)[C@H](CC(=O)O)NC(=O)[C@H](Cc2ccc(OCC(=O)O)cc2)NC(=O)[C@H](CN2CCOCC2)NC(=O)CSC[C@@H](C(=O)N[C@@H](CCN)C(=O)NCCOCCOCCOCCOCCC(=O)NCCCCCCCCCCCCC(=O)O)NC(=O)[C@H](CO)NC(=O)[C@H](C(C)(C)O)NC(=O)[C@H](CC2CCCCC2)NC(=O)[C@H](CCN)NC1=O [Compound 2916] ({CH2CO}-[Ala(morpholin-4-yl)]Y(Carboxymethyl)D[Phe(3-CF3)][Phe(4-COOH)][Bip][Phe(4-COOH)][Orn][dL][Dab][Cha][Val(3-OH)]SC[Dab][PEG4]-{NH(CH2)12COOH}; thioether N-14)
22.4	CC(C)C[C@H]1NC(=O)[C@H](CCCN)NC(=O)[C@H](Cc2ccc(C(=O)O)cc2)NC(=O)[C@H](Cc2ccc(-c3ccccc3)cc2)NC(=O)[C@H](Cc2ccc(C(=O)O)cc2)NC(=O)[C@H](Cc2cccc(C(F)(F)F)c2)NC(=O)[C@H](CC(=O)O)NC(=O)[C@H](Cc2ccc(OCC(=O)O)cc2)NC(=O)[C@H](CN2CCOCC2)NC(=O)CSC[C@@H](C(=O)N[C@@H](CCN)C(=O)NCCCCCCCCCCCCC(=O)O)NC(=O)[C@H](CO)NC(=O)[C@H](C(C)(C)O)NC(=O)[C@H](CC2CCCCC2)NC(=O)[C@H](CCN)NC1=O [Compound 2918] ({CH2CO}-[Ala(morpholin-4-yl)]Y(Carboxymethyl)D[Phe(3-CF3)][Phe(4-COOH)][Bip][Phe(4-COOH)][Orn][dL][Dab][Cha][Val(3-OH)]SC[Dab]-{NH(CH2)12COOH}; thioether N-14)
20.5	CC(C)C[C@H]1NC(=O)[C@H](CCCN)NC(=O)[C@H](Cc2ccc(C(=O)O)cc2)NC(=O)[C@H](Cc2ccc(-c3ccccc3)cc2)NC(=O)[C@H](Cc2ccc(C(=O)O)cc2)NC(=O)[C@H](Cc2cccc(C(F)(F)F)c2)NC(=O)[C@H](CC(=O)O)NC(=O)[C@H](Cc2ccc(OCC(=O)O)cc2)NC(=O)[C@H](CN2CCOCC2)NC(=O)CSC[C@@H](C(=O)N[C@@H](CCN)C(=O)NCCCCCCCCCCCCC(=O)O)NC(=O)[C@H](CC(=O)O)NC(=O)[C@H](C(C)(C)O)NC(=O)[C@H](CC2CCCCC2)NC(=O)[C@H](CCN)NC1=O [Compound 2921] ({CH2CO}-[Ala(morpholin-4-yl)]Y(Carboxymethyl)D[Phe(3-CF3)][Phe(4-COOH)][Bip][Phe(4-COOH)][Orn][dL][Dab][Cha][Val(3-OH)]DC[Dab]-{NH(CH2)12COOH}; thioether N-14)
22.5	CC(C)C[C@H]1NC(=O)[C@H](CCCN)NC(=O)[C@H](Cc2ccc(C(=O)O)cc2)NC(=O)[C@H](Cc2ccc(-c3ccccc3)cc2)NC(=O)[C@H](Cc2ccc(C(=O)O)cc2)NC(=O)[C@H](Cc2cccc(C(F)(F)F)c2)NC(=O)[C@H](CC(=O)O)NC(=O)[C@H](Cc2ccc(OCC(=O)O)cc2)NC(=O)[C@H](C)NC(=O)CSC[C@@H](C(=O)N[C@@H](CCN)C(=O)NCCCCCCCCCCCCC(=O)O)NC(=O)[C@H](Cc2c[nH]cn2)NC(=O)[C@H](C(C)(C)O)NC(=O)[C@H](CC2CCCCC2)NC(=O)[C@H](CCN)NC1=O [Compound 2923] ({CH2CO}-AY(Carboxymethyl)D[Phe(3-CF3)][Phe(4-COOH)][Bip][Phe(4-COOH)][Orn][dL][Dab][Cha][Val(3-OH)]HC[Dab]-{NH(CH2)12COOH}; thioether N-14)
